Earlier results, collected in patent US8747385B2, “Methods and compositions to treat myocardial conditions” (Abbott Cardiovascular Systems Inc., priority 2003, dated 2014).

Compound | O2 solubility at 37° C.
FC1(F)C(F)(F)C(F)(F)C2(F)C(F)(F)C(F)(F)C(F)(F)C(F)(F)C2(F)C1(F)F (centres unmarked) [FDC, Perfluorodecalin] | 45 V %
FC(F)(F)C(F)(F)C(F)(F)C(F)(F)CCC(F)(F)C(F)(F)C(F)(F)C(F)(F)F [F-44E, 1,2-bis(perfluorobutyl)ethane] | 50 V %
